Drawing on patent publication US6878701B2, “Potassium channel blocking agents” (Neurosearch A/S, priority 1999, dated 2005), this text covers IC50 for one compound.

One may read the IC50 as the concentration that gives 50% inhibition.

Molecules are shown by their SMILES.

For the assay, the target named is T1, small-conductance Ca2+-activated K+ channels (SK channels, isoform 2) (Rattus norvegicus, UniProt P70604).
T1 construct: expressed in transfected cells; host or cells: HEK293
Nature of the assay: Whole-cell patch-clamp recording of SK channel current in stably transfected HEK293 cells. The class given is cell-based. The following applies: rat SK2 stably expressed in HEK293 cells, room temperature, IC50 = Koff/Kon from kinetics of the block, read-out: biological activity determined as IC50. As for the experimental part: In this experiment. small-conductance Ca^2+-activated K^+ channels (SK channels, isoform 2) cloned from a rat cDNA library were stably expressed in HEK293 cells using standard procedures. The ionic current through the channels was recorded in the whole-cell mode of the patch-clamp technique.
Cells plated on coverstips are placed in a 15 μl perfusion chamber (flowrate ˜1 ml/min), mounted on a IMT-2 microscope equipped with Nomarski or Hoffmann optics. The microscopes are placed on vibration-free tables in grounded Faraday cages.
All experiments are performed at room temperature (20-22° C.). […] Data are stored directly on the harddisk and analysed by the IGOR software according to the manufacturer's instructions.
The whole-cell configuration of the patch clamp technique is applied. […] Cell capacitance is electronically compensated and the resistance between the pipette and the cell interior (the series resistance, Rs) is measured and compensated for. […]
In the experiments where the effect of channel activators is quantified (test 475), the intracellular (pipette) solution has the following composition (concentration in mM):
The calculated free concentration of Ca^2+ in this solution is 100 nM, and that of Mg^2+ is 1 mM. In these experiments, the concentration of CaCl2 is 7.6 mM and that of MgCl2 is 1.2 mM to give calculated free concentrations of 300 nM and 1 mM, respectively. […]
A general note: The patch-clamp technique gives a direct electrical read-out from membranes.

As to `CN1CCN(C)c2nc(c3ccccc3n2)NCC2CCCC(CNc3nc1nc1ccccc31)C2` [Compound 2, 20,23-dimethyl-2,10,18,20,23,25,32,33-octaazahexacyclo [22.7.1.1^4.8.1^11,19.0^12,17.0^26,31] tetratriaconta-1(32).11,13,15,17,19(33),24,26,28,30-decaene], the IC50 was less than 1000 nM.
